Experimental data: patent publication US20240108641A1, “COMPOSITIONS FOR ORAL ADMINISTRATION OF ZOLEDRONIC ACID OR RELATED COMPOUNDS FOR TREATING DISEASE” (ANTECIP BIOVENTURES II LLC, priority 2012, published 2024)

Assays:
[1] = test system: chronic low back pain (LBP) and Modic changes; test: randomized placebo-controlled trial in chronic low back pain with Modic changes, low back symptoms and lumbar flexibility; format: in vivo, human; details: for Fingers-to-floor, Unadjusted analyses Difference (95% CI) / Intensity of LBP, Unadjusted analyses Difference (95% CI) / Intensity of leg pain, Unadjusted analyses Difference (95% CI) / Oswestry disability index, Unadjusted analyses Difference (95% CI) / Sidebending to left, Unadjusted analyses Difference (95% CI) / Sidebending to right, Unadjusted analyses Difference (95% CI) / Fingers-to-floor, Adjusted analyses Difference (95% CI) / Intensity of LBP, Adjusted analyses Difference (95% CI) / Intensity of leg pain, Adjusted analyses Difference (95% CI) / Oswestry disability index, Adjusted analyses Difference (95% CI) / Sidebending to left, Adjusted analyses Difference (95% CI) / Sidebending to right, Adjusted analyses Difference (95% CI): ZA versus placebo; for Fingers-to-floor, Adjusted analyses Difference (95% CI) / Intensity of LBP, Adjusted analyses Difference (95% CI) / Intensity of leg pain, Adjusted analyses Difference (95% CI) / Oswestry disability index, Adjusted analyses Difference (95% CI) / Sidebending to left, Adjusted analyses Difference (95% CI) / Sidebending to right, Adjusted analyses Difference (95% CI): adjusted for baseline; for Intensity of LBP, Mean (SD) original values: 10 cm VAS
Protocol: A study was performed to evaluate the efficacy of a single intravenous infusion of 5 mg ZA in comparison with intravenous placebo infusion among patients with chronic low back pain (LBP) and Modic changes on MRI. This study was a double-blinded, randomized, placebo-controlled clinical trial in patients with low back pain (LBP). Patients were included in the study if they had low back symptoms for at least three months, an LBP of at least six (6) on a 10-cm Visual Analog Scale (VAS) or an Oswestry Disability Index (ODI) of at least 30%, and an M1, mixed M1/2 or M2 type change on MRI performed within six months at most prior to enrolment.
Patients were excluded from the study if they had renal impairment with reduced creatinine clearance defined as an estimated glomerular filtration rate (eGFR) below 40 ml/min, hypocalcemia, known hypersensitivity to zoledronic acid or other bisphosphonates or ingredients of the infusion product, the presence of red flags, nerve root entrapment or willingness for early retirement. Premenopausal women of childbearing potential were also excluded. Blood samples were taken prior to the infusion to assess the serum concentration of calcium and creatinine. The clinical examination included medical history and clinical assessment of lumbar flexibility, tendon signs, and motor and sensory testing.
After confirmation of eligibility patients were randomized to receive a single intravenous infusion of 5 mg zoledronic acid (n=20) or 100 ml saline as placebo (n=20) over a 15-minute period. Information on use of the concomitant medication and hospital admissions were recorded. Blood samples were taken for the assessment of safety, inflammatory mediators and markers of bone turnover at baseline, one month and one year.
Clinical assessments were performed 14 days before enrolment (screening visit), and follow-up visits at one month and one year after the infusion. The primary outcome was the change in the intensity of LBP on VAS. Secondary outcomes included leg pain intensity, ODI, health-related quality of life assessed with RAND-36, patient-reported sick leaves and lumbar flexibility. These outcome measures were assessed at baseline and at each follow-up. Lumbar flexibility was evaluated using the fingers-to-floor and trunk side bending measures (in cm). The percentage of patients undergoing a 20% relative improvement, the proportion of patients reaching a VAS score of 40 or less in the primary outcome, and patient acceptable symptom state (PASS) were also assessed. Pain medication use was inquired about during the follow-up visits.

[2] = test system: inflammatory pain (mechanical hyperalgesia); format: in vivo, Sprague-Dawley rats
Protocol: The effect of orally administered zoledronic acid on inflammatory pain was examined using the rat complete Freund's adjuvant (CFA) model. Inflammatory pain was induced by injection of 100% CFA in a 75 μL volume into the left hind paws of Sprague-Dawley® rats on day 0, followed by assessments on days 1-3. Animals were orally administered vehicle (control), zoledronic acid 18 mg/m^2 (or 3 mg/kg), zoledronic acid 120 mg/m^2 (or 20 mg/kg), or zoledronic acid 900 mg/m^2 (or 150 mg/kg) daily on days 1-3. Drug was dissolved in distilled water and prepared fresh daily. Animals were fasted prior to dosing. Under current FDA guidelines for extrapolating starting dosages from animals to humans, dosages expressed in mg/m^2 are considered equivalent between mammalian species. Thus, for example, 18 mg/m^2 in a rat is considered equivalent to 18 mg/m^2 in a human being, while 3 mg/kg in a rat may not be equivalent to 3 mg/kg in a human being.
Values for inflammatory pain (mechanical hyperalgesia) in the vehicle and drug-treated animals were obtained on day 0 prior to CFA injection, and at baseline and post-treatment on days 1-3. Pain was assessed using a digital Randall-Selitto device (dRS; IITC Life Sciences, Woodland Hills, CA). Animals were placed in a restraint sling that suspended the animal, leaving the hind limbs available for testing. Paw compression threshold was measured by applying increasing pressure to the plantar surface of the hind paw with a dome-shaped tip placed between the 3rd and 4th metatarsus. Pressure was applied gradually over approximately 10 seconds. Measurements were taken from the first observed nocifensive behavior of vocalization, struggle or withdrawal. A cut-off value of 300 g was used to prevent injury to the animal.
Reversal of inflammatory pain was calculated according to the formula:
% reversal=(Post-treatment−Post-CFA baseline)/(Pre-CFA baseline−Post-CFA baseline)×100.
The experiment was carried out using 9-10 animals per group.

[3] = 12 mos., single 5 mg IV infusion
[4] = one month, single 5 mg IV infusion

O=P(O)(O)C(O)(Cn1ccnc1)P(=O)(O)O [zoledronic acid]
Fingers-to-floor, Unadjusted analyses Difference (95% CI) ([1]; 1 mo.): 5.0 (−4.8 to 15) cm | Intensity of LBP, Unadjusted analyses Difference (95% CI) ([1]; 1 mo.): 1.3 (−0.2 to 2.8) | Intensity of leg pain, Unadjusted analyses Difference (95% CI) ([1]; 1 mo.): 0.8 (−0.9 to 2.4) | Oswestry disability index, Unadjusted analyses Difference (95% CI) ([1]; 1 mo.): 4.3 (−2.5 to 11) % | Sidebending to left, Unadjusted analyses Difference (95% CI) ([1]; 1 mo.): −1.5 (−3.2 to 0.1) cm | Sidebending to right, Unadjusted analyses Difference (95% CI) ([1]; 1 mo.): −2.0 (−4.3 to 0.4) cm | Fingers-to-floor, Adjusted analyses Difference (95% CI) ([1]; 1 mo.): 3.6 (−5.0 to 12) cm | Intensity of LBP, Adjusted analyses Difference (95% CI) ([1]; 1 mo.): 1.4 | Intensity of leg pain, Adjusted analyses Difference (95% CI) ([1]; 1 mo.): 0.8 (−0.6 to 2.2) | Oswestry disability index, Adjusted analyses Difference (95% CI) ([1]; 1 mo.): 6.0% | Sidebending to left, Adjusted analyses Difference (95% CI) ([1]; 1 mo.): −1.7 (−3.4 to 0.0) cm | Sidebending to right, Adjusted analyses Difference (95% CI) ([1]; 1 mo.): −2.0 (−4.4 to 0.3) cm | Intensity of LBP, Adjusted analyses Difference (95% CI) ([1]; 1 mo., listed as ZA): 1.4 (0.01 to 2.9) | Oswestry disability index, Adjusted analyses Difference (95% CI) ([1]; 1 mo., listed as ZA): 6.0 (−0.6 to 13) % | Fingers-to-floor, Mean (SD) change ([1]; 1 mo., single 5 mg IV infusion): −5.1 (20) cm | Fingers-to-floor, Mean (SD) original values ([1]; 1 mo., single 5 mg IV infusion): 17 (17) cm | Intensity of LBP, Mean (SD) change ([1]; 1 mo., single 5 mg IV infusion): −2.2 (2.7) | Intensity of leg pain, Mean (SD) change ([1]; 1 mo., single 5 mg IV infusion): −0.6 (2.4) | Intensity of leg pain, Mean (SD) original values ([1]; 1 mo., single 5 mg IV infusion): 2.0 (2.3) | Oswestry disability index, Mean (SD) change ([1]; 1 mo., single 5 mg IV infusion): −5.9 (11) % | Oswestry disability index, Mean (SD) original values ([1]; 1 mo., single 5 mg IV infusion): 24 (10) % | Sidebending to left, Mean (SD) change ([1]; 1 mo., single 5 mg IV infusion): 1.1 (3.0) cm | Sidebending to left, Mean (SD) original values ([1]; 1 mo., single 5 mg IV infusion): 16.1 (5.3) cm | Sidebending to right, Mean (SD) change ([1]; 1 mo., single 5 mg IV infusion): 1.5 (4.7) cm | Sidebending to right, Mean (SD) original values ([1]; 1 mo., single 5 mg IV infusion): 15.7 (5.9) cm | Intensity of LBP, Mean (SD) original values ([1]; 1 mo., single 5 mg IV infusion): 4.3 (2.3) | Fingers-to-floor, Unadjusted analyses Difference (95% CI) ([1]; 12 mos.): 7.1 (−4.3 to 18) cm | Intensity of LBP, Unadjusted analyses Difference (95% CI) ([1]; 12 mos.): 0.6 (−1.1 to 2.4) | Intensity of leg pain, Unadjusted analyses Difference (95% CI) ([1]; 12 mos.): 0.6 (−1.5 to 2.7) | Oswestry disability index, Unadjusted analyses Difference (95% CI) ([1]; 12 mos.): 3.1 (−5.6 to 12) % | Sidebending to left, Unadjusted analyses Difference (95% CI) ([1]; 12 mos.): −0.7 (−3.5 to 2.1) cm | Sidebending to right, Unadjusted analyses Difference (95% CI) ([1]; 12 mos.): −1.6 (−4.3 to 1.1) cm | Fingers-to-floor, Adjusted analyses Difference (95% CI) ([1]; 12 mos.): 5.3 (−4.5 to 15) cm | Intensity of LBP, Adjusted analyses Difference (95% CI) ([1]; 12 mos.): 0.7 | Intensity of leg pain, Adjusted analyses Difference (95% CI) ([1]; 12 mos.): 0.5 (−1.3 to 2.2) | Oswestry disability index, Adjusted analyses Difference (95% CI) ([1]; 12 mos.): 5.1 (−3.4 to 14) % | Sidebending to left, Adjusted analyses Difference (95% CI) ([1]; 12 mos.): −1.0 (−3.8 to 1.8) cm | Sidebending to right, Adjusted analyses Difference (95% CI) ([1]; 12 mos.): −1.7 (−4.2 to 0.8) cm | Intensity of LBP, Adjusted analyses Difference (95% CI) ([1]; 12 mos., listed as ZA): 0.7 (−1.0 to 2.4) | Fingers-to-floor, Mean (SD) change [1, 3]: −6.3 (23) cm | Fingers-to-floor, Mean (SD) original values [1, 3]: 16 (16) cm | Intensity of LBP, Mean (SD) change [1, 3]: −2.8 (2.9) | Intensity of leg pain, Mean (SD) change [1, 3]: −0.9 (3.4) | Intensity of leg pain, Mean (SD) original values [1, 3]: 2.1 (2.8) | Oswestry disability index, Mean (SD) change [1, 3]: −5.0 (15) % | Oswestry disability index, Mean (SD) original values [1, 3]: 25 (13) % | Sidebending to left, Mean (SD) change [1, 3]: 1.2 (5.3) cm | Sidebending to left, Mean (SD) original values [1, 3]: 16.2 (6.7) cm | Sidebending to right, Mean (SD) change [1, 3]: 1.6 (4.8) cm | Sidebending to right, Mean (SD) original values [1, 3]: 15.7 (5.6) cm | Intensity of LBP, Mean (SD) original values [1, 3]: 3.8 (2.5) | Pain Reduction, VAS Change from Baseline ([1]; Baseline VAS < 6, single 5 mg IV infusion): −0.1 cm | Pain Reduction, VAS Change from Baseline ([1]; Baseline VAS ≥ 6 and <7, single 5 mg IV infusion): −2.3 cm | Pain Reduction, VAS Change from Baseline ([1]; Baseline VAS ≥ 7, single 5 mg IV infusion): −3.4 cm | mean reduction in pain from baseline ([1]; baseline pain intensity <6, single 5 mg IV infusion): 0.1 | mean reduction in pain from baseline ([1]; baseline pain intensity ≥7, single 5 mg IV infusion): 3.4 | proportion of patients reaching patient acceptable symptom state (PASS) [1, 4]: 50% | proportion of patients with at least 20% improvement in intensity of LBP [1, 4]: 55% | patients using NSAIDs ([1]; one year, single 5 mg IV infusion): 20% | paw compression thresholds compared to vehicle ([2]; 120 mg/m^2 (20 mg/kg) oral daily, all time points): approximately equal or inferior to vehicle | toxicity ([2]; 900 mg/m^2 oral daily days 1-3, euthanization of all animals two days after cessation of dosing): significant toxicity | inflammatory pain thresholds compared to vehicle ([2]; oral administration): significantly improved
